Article PMC8284440, “Toward New Transmission-Blocking Combination Therapies: Pharmacokinetics of 10-Amino-Artemisinins and 11-Aza-Artemisinin and Comparison with Dihydroartemisinin and Artemether” (Antimicrobial Agents and Chemotherapy, 2021)
Where two headings read alike, the source gives them in different places.

What was measured:
[1] = system: P. falciparum W2; design: method as in ref 4 (supplement; main text 62); settings: Table S2, ± SEM; ref 4 (supplement; main text 62); read-out: Antimalarial activities IC50 W2; cited from earlier work
[2] = system: P. falciparum TM-C2B; design: method as in ref 5 (supplement; main text 63); settings: atovaquone and CQ resistant; ref 5 (supplement; main text 63); read-out: Antimalarial activities IC50 TM-C2B; cited from earlier work
[3] = system: early stage (>90% stage I-III) P. falciparum NF54 gametocytes; settings: cited from earlier work
[4] = system: P. falciparum K1; design: method as in ref 4 (supplement; main text 62); settings: Table S2, ± SEM; ref 4 (supplement; main text 62); read-out: Antimalarial activities IC50 K1; cited from earlier work
[5] = system: P. falciparum 7G8; design: method as in ref 5 (supplement; main text 63); settings: CQ resistant; ref 5 (supplement; main text 63); read-out: Antimalarial activities IC50 7G8; cited from earlier work
[6] = system: P. falciparum NF54; design: method as in ref 4 (supplement; main text 62); settings: Table S2, ± SEM; ref 4 (supplement; main text 62); read-out: Antimalarial activities IC50 NF54; cited from earlier work
[7] = system: late stage (>90% stage IV and V) P. falciparum NF54 gametocytes; settings: cited from earlier work
[8] = system: murine cerebral malaria; design: method as in PMID 20691118; settings: prescribed low dose levels; cited from earlier work
[9] = system: P. falciparum W2; design: method as in ref 5 (supplement; main text 63); settings: CQ resistant; ref 5 (supplement; main text 63); read-out: Antimalarial activities IC50 W2; cited from earlier work
[10] = system: P. falciparum TM93-C1088; design: method as in ref 5 (supplement; main text 63); settings: atovaquone and CQ resistant; ref 5 (supplement; main text 63); read-out: Antimalarial activities IC50 TM93-C1088; cited from earlier work
[11] = system: P. falciparum TM91-C235; design: method as in ref 5 (supplement; main text 63); settings: CQ and mefloquine resistant; ref 5 (supplement; main text 63); read-out: Antimalarial activities IC50 TM91-C235; cited from earlier work
[12] = system: P. falciparum K1; design: method as in ref 1 and 2 (supplement; main text 47, 48); settings: Table S1, ± SEM; ref 1 and 2 (supplement; main text 47, 48); cited from earlier work
[13] = Preliminary PK assessment in the murine model (toxicity); type: in vivo
Source text: Overall, artemiside, artemisone, and the arylurea are the frontrunners in terms of global efficacies and relatively low toxicities in vitro. However, expression of therapeutic efficacy depends not only on biological activity but also on pharmacokinetic (PK) properties. This becomes important for the envisaged drug combinations ([67]). We report here on the in vitro absorption, distribution, metabolism, and excretion (ADME) properties and PK measurement in a murine model of the compounds of Fig. 2. […] The data are directly compared to those of DHA and artemether. An evaluation of the compounds to be taken forward is then presented.

[14] = system: P. falciparum NF54; design: method as in ref 1 and 2 (supplement; main text 47, 48); settings: Table S1, ± SEM; ref 1 and 2 (supplement; main text 47, 48); cited from earlier work
[15] = system: P. falciparum W2; design: method as in ref 1 and 2 (supplement; main text 47, 48); settings: Table S1, ± SEM; ref 1 and 2 (supplement; main text 47, 48); cited from earlier work
[16] = system: Chinese hamster ovary (CHO) cells; settings: cited from earlier work
[17] = system: liver stage P. berghei ANKA GFP-Luc-SMcon sporozoites; design: method as in ref 2 (supplement; main text 48); settings: ref 2 (supplement; main text 48), cited from earlier work; for IC50: 48 h, ± SD
[18] = system: HepG2; settings: cited from earlier work
[19] = system: P. falciparum D6; design: method as in ref 5 (supplement; main text 63); settings: CQ sensitive; ref 5 (supplement; main text 63); read-out: Antimalarial activities IC50 D6; cited from earlier work
[20] = design: method as in PMID 25759576; settings: p.o., mouse; cited from earlier work
[21] = design: method as in PMID 25759576; settings: i.v., mouse; cited from earlier work
[22] = Table S3, ± SEM, ref 1 and 2 (supplement; main text 47, 48), read-out: Early Stage (EG, Luc 48 h) IC50
[23] = Table S3, ± SEM, ref 1 and 2 (supplement; main text 47, 48), read-out: Late Stage (LG, Luc 72 h) IC50

**Q.** Which results are given for `C[C@H]1[C@H](OC(=O)CCC(=O)O)O[C@@H]2O[C@@]3(C)CC[C@H]4[C@H](C)CC[C@@H]1[C@@]24OO3` [Artesunate 4, artesunate]?
**A.** IC50 [1]: 2.4 ± 0.2 nM; IC50 [2]: 2.5 ± 0.5 nM; IC50 ([3]; Table S4, ± SEM, n = 3, ref 4 (supplement; main text 62), read-out: Early stage IC50 (Luciferase 48 h)): 62.8 ± 3.14 nM; IC50 [4]: 3.26 ± 0.2 nM; IC50 [5]: 1.5 ± 0.2 nM; IC50 [6]: 3 ± 0.29 nM; IC50 ([7]; Table S4, n = 1, ref 4 (supplement; main text 62), read-out: Late stage IC50 (Luciferase 72 h)): 171 nM; Cure of murine cerebral malaria [8]: no cure; IC50 [9]: 3 ± 1.6 nM; IC50 [10]: 1.4 ± 0.1 nM; IC50 [11]: 2.9 ± 1.4 nM

**Q.** Which IC50 [3, 22] does the source give for `C[C@H]1[C@H](Nc2ccc(F)cc2)O[C@@H]2O[C@@]3(C)CC[C@H]4[C@H](C)CC[C@@H]1[C@@]24OO3` [Arylamine 8] here?
**A.** 38.2 ± 9 nM

**Q.** And the IC50 [12]?
**A.** 0.64 ± 0.1 nM

**Q.** And the IC50 [7, 23]?
**A.** 16.4 ± 6.38 nM

**Q.** And the “Toxicity in preliminary PK assessment” value [13]?
**A.** untoward toxicity

**Q.** What about the IC50 [14] of the same compound?
**A.** 1.3 ± 0.6 nM

**Q.** And the IC50 [15]?
**A.** 3 ± 1 nM

**Q.** And the EC50 ([16]; read-out: Cytotoxicity EC50 CHO, MTT, ±SD, ref 1 and 2 (supplement; main text 47, 48))?
**A.** 2900 ± 1400 nM

**Q.** For `O=C1C(O)=C([C@H]2CC[C@H](c3ccc(Cl)cc3)CC2)C(=O)c2ccccc21` [Atovaquone], which IC50 [2] is on record?
**A.** 31800 nM

**Q.** And the IC50 [5]?
**A.** 3.1 ± 0.9 nM

**Q.** And the IC50 [17]?
**A.** 2.52 ± 0.997 nM

**Q.** What about the Maximum inhibition % ([17]; at 0.5 µM) of the same compound?
**A.** 94.85±2.76%

**Q.** And the EC50 [18]?
**A.** > 250 nM

**Q.** And the IC50 [10]?
**A.** 18800 nM

**Q.** What about the IC50 [11] of the same compound?
**A.** 2.2 ± 0.7 nM

**Q.** What does the source list for `CCN(CC)CCCC(C)Nc1ccnc2cc(Cl)ccc12` (stereo not drawn) [Chloroquine]?
**A.** IC50 [2]: 95 ± 23 nM; IC50 [5]: 84 ± 18 nM; IC50 [12]: 154 ± 14 nM; IC50 [19]: 16 ± 2 nM; IC50 [9]: 195 ± 70 nM; IC50 [14]: 10 ± 3 nM; IC50 [10]: 360 ± 38 nM; IC50 [11]: 70 ± 12 nM

**Q.** What does the source list for `OC(c1cc(C(F)(F)F)nc2c(C(F)(F)F)cccc12)C1CCCCN1` (stereo not drawn) [Mefloquine MFQ, Mefloquine]?
**A.** IC50 [2]: 130 ± 51 nM; IC50 [5]: 5.4 ± 1.7 nM; IC50 [10]: 16 ± 5 nM; IC50 [11]: 107 ± 41 nM

**Q.** Which IC50 [3, 22] does the source give for `CN(C)c1ccc2nc3ccc(=[N+](C)C)cc-3sc2c1` [Methylene Blue, reference compound] here?
**A.** 95 nM

**Q.** What about the IC50 [12] of the same compound?
**A.** 6.45 ± 0.3 nM

**Q.** And the IC50 [7, 23]?
**A.** 143 nM

**Q.** What about the IC50 [14] of the same compound?
**A.** 5 ± 0.8 nM

**Q.** And the IC50 [15]?
**A.** 5.13 ± 0.31 nM

**Q.** What about the EC50 [16] of the same compound?
**A.** 52600 ± 4500 nM

**Q.** For `COc1ccc(C[C@H](N)C(=O)N[C@H]2[C@@H](O)[C@H](n3cnc4c(N(C)C)ncnc43)O[C@@H]2CO)cc1` [Puromycin], which IC50 [17] is on record?
**A.** 22.7 ± 4.53 nM

**Q.** And the Maximum inhibition % ([17]; at 5 µM)?
**A.** 110±4.24%

**Q.** What about the EC50 [18] of the same compound?
**A.** 117 nM

**Q.** For `COc1cc(C)c2c(Oc3cccc(C(F)(F)F)c3)c(OC)cc(NC(C)CCCN)c2n1` (stereo not drawn) [Tafenoquine], which AUC [20] is on record?
**A.** 11,368 ± 1,232 min/μmol/liter

**Q.** And the Cmax [20]?
**A.** 3.06 ± 0.37 µM

**Q.** What about the F [20] of the same compound?
**A.** 55 ± 2%

**Q.** And the Tmax [20]?
**A.** 9.0 ± 1.0 h

**Q.** What about the AUC [21] of the same compound?
**A.** 2,363 ± 146 min/μmol/liter

**Q.** What about the CLint [21] of the same compound?
**A.** 1.84 mL/min/kg

**Q.** What about the V [21] of the same compound?
**A.** 2.34 ± 0.0 L/kg

**Q.** What about the t1/2 [21] of the same compound?
**A.** 43.7 ± 1.5 h
